{
  "source": "patent US12454687B2",
  "about": "“Functional genomics using CRISPR-Cas systems, compositions, methods, knock out libraries and applications thereof” (The Broad Institute, Inc., priority 2012, dated 2025)",
  "key": {"human EMX1 locus [1]": {"system": "human EMX1 locus", "assay": "double nicking SURVEYOR assay, Cas9 nickase with pairs of guide RNAs, HEK293FT cells", "format": "cell-based", "conditions": "sgRNA pairs generating 5′ and 3′ overhangs, offset range from −278 to +58 bp", "procedure": "Applicants transfected cells using Lipofectamine 2000, and transfected cells were harvested 48 or 72 hours after transfections. Double nicking-induced NHEJ were detected using the SURVEYOR nuclease assay as described previously herein (FIGS. 51, 52 and 53)."}, "human EMX1 locus [2]": {"system": "human EMX1 locus", "assay": "restriction fragment length polymorphism assay for homologous recombination", "format": "cell-based", "conditions": "HEK 293 FT, HindIII digest"}, "human EMX1 locus [3]": {"system": "human EMX1 locus", "assay": "sequencing of amplicons containing the target locus", "format": "cell-based", "conditions": "sequencing of 327 amplicons"}, "EMX1 locus": {"system": "EMX1 locus", "assay": "HDR with ssODNs and targeting vector in HUES9 cells", "format": "cell-based, human", "description": "(a) Either a targeting plasmid or an ssODN (sense or antisense) with homology arms can be used to edit the sequence at a target genomic locus cleaved by Cas9 (red triangle). To assay the efficiency of HDR, we introduced a HindIII site into the target locus, which was PCR-amplified with primers that anneal outside of the region of homology. […] (b) ssODNs, oriented in either the sense or the antisense (s or a) direction relative to the locus of interest, can be used in combination with Cas9 to achieve efficient HDR-mediated editing at the target locus. A minimal homology region of 40 bp, and preferably 90 bp, is recommended on either side of the modification. […] Each ssODN contains homology arms of 90 bp flanking a 12-bp insertion of two restriction sites.\n114| In the HDR example, a HindIII restriction site is inserted into the EMX1 gene. These are detected by a restriction digest of the PCR amplicon:\niv. The cleavage products are imaged and quantified as described above in the SURVEYOR assay section. HDR efficiency is estimated by the formula: (b+c)/(a+b+c), where a is the integrated intensity for the undigested HDR PCR product, and b and c are the integrated intensities for the HindIII-cut fragments.\nCRISPR-Cas may be easily multiplexed to facilitate simultaneous modification of several genes and mediate chromosomal microdeletions at high efficiencies. […]"}, "human EMX1 locus [4]": {"system": "human EMX1 locus", "assay": "Surveyor assay for genome modification, HEK 293 FT cells", "format": "cell-based", "conditions": "co-expression with EMX1-targeting chimeric crRNA, n=3"}, "[5]": {"system": "Exon 51 of the dystrophin gene", "conditions": "across 48 weeks, cited from earlier work"}},
  "data": [
    {"substance": "H840A: SpCas9 with mutation H840A", "values": [
      {"measurement": "indel formation with sgRNA pairs", "setting": "human EMX1 locus [1]", "result": "unable to observe indel formation"}
    ]},
    {"substance": "SpCas9n: SpCas9 with aspartate-to-alanine substitution (D10A) in the RuvC I catalytic domain, a nickase", "values": [
      {"measurement": "integration of the HR template into the EMX1 locus", "setting": "human EMX1 locus [2]", "result": "catalyzed integration of the HR template"},
      {"measurement": "indels detected by sequencing", "setting": "human EMX1 locus [3]", "result": "did not detect any indels"},
      {"measurement": "HDR detection", "setting": "EMX1 locus", "result": "not been able to detect HDR"},
      {"measurement": "indels at the EMX1 protospacer target", "setting": "human EMX1 locus [4]", "result": "does not generate indels"}
    ]},
    {"substance": "eteplirsen", "values": [
      {"measurement": "functional benefit", "setting": "[5]", "result": "significant functional benefit"},
      {"measurement": "dystrophin positive fibers", "setting": "[5]; average, compared to baseline", "result": 47, "unit": "%"}
    ]}
  ]
}
